Consider two compounds from patent US8071593B2, “2-oxo-3-benzylbenzoxazol-2-one derivatives and related compounds as Met kinase inhibitors for the treatment of tumours” (Merck Patent Gesellschaft mit beschrankter Haftung, priority 2007, dated 2011).

A word on the melting point: it is the temperature of the solid-liquid transition. In general, IC50 refers to the concentration that gives 50% inhibition.

Counter-ions that a name gives are not always drawn.

One data set concerns the target Met kinase (Homo sapiens, UniProt P08581). The experiment in a line: Met kinase inhibition (cell assay). It counts as cell-based.

Chain of Met kinase (P08581 25-1390): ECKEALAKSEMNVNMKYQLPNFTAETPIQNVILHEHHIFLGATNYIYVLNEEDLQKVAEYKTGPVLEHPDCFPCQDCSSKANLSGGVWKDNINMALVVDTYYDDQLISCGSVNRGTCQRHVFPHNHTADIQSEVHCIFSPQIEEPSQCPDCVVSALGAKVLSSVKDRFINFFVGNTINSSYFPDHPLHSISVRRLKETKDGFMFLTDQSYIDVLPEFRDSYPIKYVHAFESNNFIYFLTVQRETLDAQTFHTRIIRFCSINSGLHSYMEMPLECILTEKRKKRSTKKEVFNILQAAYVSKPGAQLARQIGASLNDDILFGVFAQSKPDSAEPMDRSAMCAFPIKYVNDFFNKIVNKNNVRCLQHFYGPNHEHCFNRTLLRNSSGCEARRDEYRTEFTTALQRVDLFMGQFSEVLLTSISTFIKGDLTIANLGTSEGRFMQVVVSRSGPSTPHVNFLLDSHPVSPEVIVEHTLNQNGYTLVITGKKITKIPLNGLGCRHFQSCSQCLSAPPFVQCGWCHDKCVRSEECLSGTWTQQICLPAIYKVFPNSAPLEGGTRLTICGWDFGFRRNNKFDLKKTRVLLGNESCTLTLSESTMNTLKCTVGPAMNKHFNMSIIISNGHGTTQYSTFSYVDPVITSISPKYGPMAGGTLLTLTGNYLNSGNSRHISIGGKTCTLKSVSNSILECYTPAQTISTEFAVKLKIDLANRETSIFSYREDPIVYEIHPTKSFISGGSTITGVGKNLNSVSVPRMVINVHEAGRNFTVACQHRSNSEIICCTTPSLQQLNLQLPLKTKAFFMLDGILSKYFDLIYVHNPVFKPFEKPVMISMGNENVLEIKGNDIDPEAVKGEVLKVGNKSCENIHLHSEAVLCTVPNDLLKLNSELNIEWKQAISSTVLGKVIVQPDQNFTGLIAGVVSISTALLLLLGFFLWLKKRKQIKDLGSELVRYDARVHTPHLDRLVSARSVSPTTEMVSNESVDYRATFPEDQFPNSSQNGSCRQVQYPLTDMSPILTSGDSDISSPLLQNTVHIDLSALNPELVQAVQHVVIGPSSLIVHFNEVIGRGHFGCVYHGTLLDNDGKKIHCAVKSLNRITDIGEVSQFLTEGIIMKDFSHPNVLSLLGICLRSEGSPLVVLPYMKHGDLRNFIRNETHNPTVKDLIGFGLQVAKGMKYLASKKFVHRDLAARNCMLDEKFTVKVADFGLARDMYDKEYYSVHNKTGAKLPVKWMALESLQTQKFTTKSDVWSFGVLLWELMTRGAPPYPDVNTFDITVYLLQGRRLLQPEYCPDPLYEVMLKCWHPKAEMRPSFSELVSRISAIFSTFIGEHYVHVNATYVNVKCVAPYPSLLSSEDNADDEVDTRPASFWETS

In turn, `CN(C)CCNC(=O)C(=O)Nc1cccc(Cn2c(=O)oc3cc(Cl)ccc32)c1` (as salt: hydrochloride) [Compound A141, N-[3-(6-chloro-2-oxobenzoxazol-3-ylmethyl)phenyl]-N′-(2-dimethylaminoethyl)oxalamide] registered a melting point of 273 °C.

In the case of `COC(=O)c1ccc2oc(=O)n(Cc3cccc(-c4ncc(OCCCN(C)C)cn4)c3)c2c1` [Compound A64, methyl 3-{3-[5-(3-dimethylaminopropoxy)pyrimidin-2-yl]-benzyl}-2-oxo-2,3-dihydrobenzoxazole-5-carboxylate], the melting point is 125 °C. At Met kinase, this compound showed an IC50 of 10 to 1000 nM.
